Common to all, as to type: cell-based, human
The subject of test [1] is YAP1 overexpression in U2OS cells. The experiment in a line: Cell Painting morphological profile matching to YAP1/TAZ overexpression signature. To be noted: Pearson correlation of Cell Painting signatures, U2OS cells. An excerpt: (§1) Of these, analysis of the 220 constructs that were most closely representative of the annotated full-length transcripts was prioritized. […] Not all genes are likely to impact cellular morphology given the limitation of the experiment; using a single cell line at a single time point under a single set of conditions and stained with six fluorescent labels.
FIG. 2 provides an example characterization of matching the morphological signature of a gene query to the signature(s) of compounds in a library. Connections which show both positive and negative large correlations are considered as matches.
(§2) This standardization was done plate wise, based on the mean and standard deviation of the controls at profile level for the compound dataset. […] The signatures were then obtained by averaging the replicate profiles feature-wise. Pearson correlation was used on the aligned signatures of a gene and compound to score their connection.

For test [2], the system named is TRAF2 overexpression in U2OS cells. The experiment in a line: Cell Painting morphological profile matching to TRAF2 overexpression. To be noted: Pearson correlation of Cell Painting signatures, U2OS cells.
Description: as §1, §2

The next test has as its system U2OS cells. Briefly: Cell count in U2OS Cell Painting images. Conditions: U2OS Cell Painting.
Description: as §1, §2

We go through 22 compounds from US20230255970A1, “COMPOSITIONS AND METHODS FOR TREATING PROLIFERATIVE DISEASES” (The Broad Institute, Inc., priority 2020, published 2023).

Structures are written as SMILES.

As for `Cc1ccc(S(=O)(=O)NC(=O)NN2CC3CCCC3C2)cc1` (stereo not drawn) [BRD-A61154809, 1-(3,3a,4,5,6,6a-hexahydro-1H-cyclopenta[c]pyrrol-2-yl)-3-(4-methylphenyl)sulfonylurea], the “Corr. to YAP1 cluster” value in test [1] came to 0.4401. The “Corr. to TRAF2” value in test [2] is −0.3313. In addition, the “Avg. Cell Count z-score” value in the test with U2OS cells came to 0.8203.
The matching figures for `N#Cc1nn(-c2c(Cl)cc(C(F)(F)F)cc2Cl)c(N)c1[S+]([O-])C(F)(F)F` (stereo not drawn) [BRD-A50675702, 5-amino-1-[2,6-dichloro-4-(trifluoromethyl)phenyl]-4-(trifluoromethane)sulfinyl-1H-pyrazole-3-carbonitrile]: 0.5102, −0.4752 and −0.1188.
The matching figures for `O=C(C[C@H]1CC[C@H](NC(=O)CCN2CCCCC2)[C@@H](CO)O1)Nc1nccs1` [BRD-K11266478, N-[(2S,3S,6R)-2-(hydroxymethyl)-6-[2-oxo-2-(1,3-thiazol-2-ylamino)ethyl]oxan-3-yl]-3-piperidin-1-ylpropanamide]: 0.4988, −0.4398 and 0.4851.
Taken in the same sequence, the figures for `O=C(N[C@H]1CC[C@@H](CCNS(=O)(=O)c2ccc(F)cc2)O[C@H]1CO)C1CCOCC1` [BRD-K48052543, N-[(2R,3S,6S)-6-[2-[(4-fluorophenyl)sulfonylamino]ethyl]-2-(hydroxymethyl)oxan-3-yl]oxane-4-carboxamide] were 0.5099, −0.4132 and 0.09801.
For `CN1c2cc3c(cc2N=C(c2ccc(C(=O)O)cc2)c2ccccc21)C(C)(C)CCC3(C)C` [BRD-K06593056, 4-(5,7,7,10,10-pentamethyl-8,9-dihydronaphtho[2,3-b][1,4]benzodiazepin-13-yl)benzoic acid], the “Corr. to YAP1 cluster” value in test [1] came to 0.4357. Further, in test [2], the “Corr. to TRAF2” value is reported as −0.4512. The “Avg. Cell Count z-score” value in the test with U2OS cells was −0.7909.
Taken in the same sequence, the figures for `C[C@@H]1CN([C@H](C)CO)C(=O)CCCn2cc(nn2)CO[C@@H]1CN(C)S(=O)(=O)c1ccc(Oc2ccccc2)cc1` [BRD-K96698997, N-[[(8R,9S)-6-[(2R)-1-hydroxypropan-2-yl]-8-methyl-5-oxo-10-oxa-1,6,13,14-tetrazabicyclo[10.2.1]pentadeca-12(15),13-dien-9-yl]methyl]-N-methyl-4-phenoxybenzenesulfonamide] were −0.4518, 0.4834 and −1.099.
As for `O=c1c(-c2ccc(O)cc2)coc2cc(O)ccc12` [BRD-K42095107, 7-hydroxy-3-(4-hydroxyphenyl)chromen-4-one], the “Corr. to YAP1 cluster” value in test [1] worked out at 0.4583. In test [2], the “Corr. to TRAF2” value was −0.372. Moreover, in the test on U2OS cells, the “Avg. Cell Count z-score” value was −0.8813.
As to `O=C(C[C@H]1C=C[C@@H](NC(=O)Nc2cc(F)ccc2F)[C@H](CO)O1)NCCCN1CCOCC1` [BRD-K40143134, 2-[(2R,3R,6S)-3-[[(2,5-difluoroanilino)-oxomethyl]amino]-2-(hydroxymethyl)-3,6-dihydro-2H-pyran-6-yl]-N-[3-(4-morpholinyl)propyl]acetamide], the “Corr. to YAP1 cluster” value in test [1] is recorded as 0.5009. The “Corr. to TRAF2” value in test [2] is given as −0.3428. For the same compound, the “Avg. Cell Count z-score” value in the test on U2OS cells is recorded as −0.1148.
The matching figures for `O=C(Nc1ccncc1)Nc1c(Cl)cc(Cl)cc1Cl` [BRD-K46678324, 1-pyridin-4-yl-3-(2,4,6-trichlorophenyl)urea]: 0.4284, −0.3397 and −0.7252.
Taken in the same sequence, the figures for `COc1cccc(S(=O)(=O)N2C[C@H](O)COC[C@@H]3O[C@H](CC(=O)N4CCN(c5ccccc5)CC4)CC[C@H]32)c1` [BRD-K70003473, 2-[(3S,6aR,8S,10aR)-3-hydroxy-1-(3-methoxyphenyl)sulfonyl-3,4,6,6a,8,9,10,10a-octahydro-2H-pyrano[2,3-c][1,5]oxazocin-8-yl]-1-(4-phenyl-1-piperazinyl)ethanone] were −0.4195, 0.3099 and 0.5728.
The matching figures for `CO[C@H]1CN(C)C(=O)c2cc(NC(=O)C3CCCCC3)ccc2OC[C@@H](C)N(Cc2nccs2)C[C@@H]1C` [BRD-K22874335, N-[(4R,7S,8R)-8-methoxy-4,7,10-trimethyl-11-oxo-5-(1,3-thiazol-2-ylmethyl)-2-oxa-5,10-diazabicyclo[10.4.0]hexadeca-1(12),13,15-trien-14-yl]cyclohexanecarboxamide]: 0.4904, −0.362 and −1.704.
In the case of `CCc1nc(N)nc(N)c1-c1ccc(Cl)cc1` [BRD-K88429204, 5-(4-chlorophenyl)-6-ethylpyrimidine-2,4-diamine], the “Corr. to YAP1 cluster” value in test [1] worked out at 0.4503. Besides, the “Corr. to TRAF2” value in test [2] is −0.3496. In addition, the “Avg. Cell Count z-score” value in the test on U2OS cells was −0.2165.
Taken in the same sequence, the figures for `CCCNC(=O)N1[C@@H]2c3ccc(-c4ccccc4OC)c(=O)n3C[C@H]1[C@H](CO)[C@H]2C(=O)NCC` [BRD-K39839146, (1S,9R,10R,11R)-11-N-ethyl-10-(hydroxymethyl)-5-(2-methoxyphenyl)-6-oxo-12-N-propyl-7,12-diazatricyclo[7.2.1.02,7]dodeca-2,4-diene-11,12-dicarboxamide] were 0.4835, −0.4284 and 0.2185.
The matching figures for `O=c1[nH]ccc2c(S(=O)(=O)N3CCCNCC3)cccc12` [BRD-K77793136, 5-(1,4-diazepan-1-ylsulfonyl)-2H-isoquinolin-1-one]: 0.4458, −0.4667 and −1.055.
The matching figures for `COc1ccc(Cc2nccc3cc(OC)c(OC)cc23)cc1OC` [BRD-K15567136, 1-[(3,4-dimethoxyphenyl)methyl]-6,7-dimethoxyisoquinoline]: 0.4464, −0.4936 and −0.6568.
With `CO[C@@H]1CN(C)C(=O)c2ccc(NC(=O)c3ccccc3F)cc2OC[C@H](C)N(CC2CC2)C[C@@H]1C` [BRD-K42367391, N-[(5S,6S,9S)-8-(cyclopropylmethyl)-5-methoxy-3,6,9-trimethyl-2-oxo-11-oxa-3,8-diazabicyclo[10.4.0]hexadeca-1(12),13,15-trien-14-yl]-2-fluorobenzamide], the “Corr. to YAP1 cluster” value in test [1] turned out to be 0.4887. In addition, in test [2], the “Corr. to TRAF2” value is recorded as −0.2728. Further, the “Avg. Cell Count z-score” value in the test with U2OS cells is given as −0.9374.
For the compound `O=C(NCC1CC1)[C@@H]1N[C@@H]2c3ccc(C4=CCCCC4)c(=O)n3C[C@@H]2[C@H]1CO` [BRD-K37451830, (2R,3R,3aS,9bS)-7-(1-cyclohexenyl)-N-(cyclopropylmethyl)-3-(hydroxymethyl)-6-oxo-1,2,3,3a,4,9b-hexahydropyrrolo[2,3-a]indolizine-2-carboxamide], the “Corr. to YAP1 cluster” value in test [1] is given as 0.4802. Moreover, the “Corr. to TRAF2” value in test [2] is listed as −0.4167. Moreover, the “Avg. Cell Count z-score” value in the test on U2OS cells was −0.0043.
Taken in the same sequence, the figures for `COC(=O)C[C@H]1C[C@H]2c3cc(NS(=O)(=O)c4cccc(OC)c4)ccc3O[C@H]2[C@@H](CO)O1` [BRD-K68530167, 2-[(1R,3R,4aS,9aR)-1-(hydroxymethyl)-6-[(3-methoxyphenyl)sulfonylamino]-3,4,4a,9a-tetrahydro-1H-pyrano[3,4-b]benzofuran-3-yl]acetic acid methyl ester] were 0.494, −0.4619 and −0.1411.
Taken in the same sequence, the figures for `O=C(C[C@@H]1C[C@H]2c3cc(NC(=O)C4CCC4)ccc3O[C@H]2[C@H](CO)O1)NCc1ccccn1` [BRD-K28043081, N-[(1S,3S,4aS,9aR)-1-(hydroxymethyl)-3-[2-oxo-2-(pyridin-2-ylmethylamino)ethyl]-3,4,4a,9a-tetrahydro-1H-pyrano[3,4-b][1]benzofuran-6-yl]cyclobutanecarboxamide] were 0.527, −0.406 and −0.5533.
Consider `C[C@H](CO)N1C[C@H](C)[C@H](CN(C)C)Oc2cc(C#Cc3ccccn3)ccc2S1(=O)=O` [BRD-K13719685, (4S,5R)-5-((dimethylamino)methyl)-2-((R)-1-hydroxypropan-2-yl)-4-methyl-8-(pyridin-2-ylethynyl)-2,3,4,5-tetrahydrobenzo[b][1,4,5]oxathiazocine 1,1-dioxide], for which the “Corr. to YAP1 cluster” value in test [1] is −0.4426. Besides, the “Corr. to TRAF2” value in test [2] came to 0.3591. Besides, in the test on U2OS cells, the “Avg. Cell Count z-score” value came to 2.104.
Taken in the same sequence, the figures for `Clc1nc(NCc2ccccc2)c2ccccc2n1` [BRD-K11758216, N-benzyl-2-chloroquinazolin-4-amine] were 0.5078, −0.4406 and −1.202.
The matching figures for `CCCC(=O)Nc1ccc2c(c1)C(=O)N(C)C[C@H](OC)[C@H](C)CN(Cc1ccccc1)[C@@H](C)CO2` [BRD-K22754756, N-[(4S,7R,8R)-8-methoxy-4,7,10-trimethyl-11-oxo-5-(phenylmethyl)-2-oxa-5,10-diazabicyclo[10.4.0]hexadeca-1(12),13,15-trien-14-yl]butanamide]: 0.4966, −0.297 and −1.409.
